Measurements reported in BindingDB's records for doi:10.1021/jm00145a024 (1985).

Assay: Inhibitory binding constant in guinea pig brain homogenate was reported at Opioid receptor delta 1 at a temperature 25 degree Celsius labeled with [3H](D-Ala2-D-Leu5)-enkephalin (0.7 nM)

With `O=C1c2ccc(O)c3c2C24CCN(CC5CC5)C1[C@]2(O)CCC(=O)[C@@H]4O3` (stereo partly specified) the Ki was 281 nM.
